In ChEMBL document CHEMBL3813616, “Discovery of novel 7-azaindoles as PDK1 inhibitors” (Bioorg Med Chem Lett, 2016):

Key:
Parameters in all cases: scale not given: the % may be the effect or the level left
[1] = target: T1, Inhibitor of nuclear factor kappa-B kinase subunit epsilon (Homo sapiens) (UniProt Q14164); experiment: Inhibition of human IKBKE (1 to 716 residues) assessed as enzyme activity at 1 uM using 33P ATP by radioactive filter binding assay
T1 sequence (whole entry): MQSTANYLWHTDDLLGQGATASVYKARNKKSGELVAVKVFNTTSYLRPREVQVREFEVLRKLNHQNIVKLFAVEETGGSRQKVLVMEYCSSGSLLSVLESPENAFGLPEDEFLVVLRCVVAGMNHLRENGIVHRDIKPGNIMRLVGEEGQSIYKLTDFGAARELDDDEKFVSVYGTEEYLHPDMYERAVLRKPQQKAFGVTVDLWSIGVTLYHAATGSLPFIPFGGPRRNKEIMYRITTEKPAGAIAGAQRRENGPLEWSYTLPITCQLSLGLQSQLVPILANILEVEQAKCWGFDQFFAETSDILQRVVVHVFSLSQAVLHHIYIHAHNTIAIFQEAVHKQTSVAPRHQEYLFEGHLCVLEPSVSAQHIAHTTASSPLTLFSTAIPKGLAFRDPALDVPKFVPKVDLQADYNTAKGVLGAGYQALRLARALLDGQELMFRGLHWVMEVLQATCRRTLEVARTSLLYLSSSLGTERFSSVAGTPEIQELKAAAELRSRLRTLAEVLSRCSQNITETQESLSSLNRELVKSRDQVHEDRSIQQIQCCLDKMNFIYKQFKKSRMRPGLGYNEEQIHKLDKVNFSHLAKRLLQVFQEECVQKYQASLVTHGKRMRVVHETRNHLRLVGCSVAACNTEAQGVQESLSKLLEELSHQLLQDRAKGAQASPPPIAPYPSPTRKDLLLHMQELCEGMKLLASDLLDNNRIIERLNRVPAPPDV

[2] = target: T2, Lymphokine-activated killer T-cell-originated protein kinase (Homo sapiens) (UniProt Q96KB5); experiment: Inhibition of human PBK (2 to 297 residues) assessed as enzyme activity at 1 uM using 33P ATP by radioactive filter binding assay
T2 sequence (whole entry): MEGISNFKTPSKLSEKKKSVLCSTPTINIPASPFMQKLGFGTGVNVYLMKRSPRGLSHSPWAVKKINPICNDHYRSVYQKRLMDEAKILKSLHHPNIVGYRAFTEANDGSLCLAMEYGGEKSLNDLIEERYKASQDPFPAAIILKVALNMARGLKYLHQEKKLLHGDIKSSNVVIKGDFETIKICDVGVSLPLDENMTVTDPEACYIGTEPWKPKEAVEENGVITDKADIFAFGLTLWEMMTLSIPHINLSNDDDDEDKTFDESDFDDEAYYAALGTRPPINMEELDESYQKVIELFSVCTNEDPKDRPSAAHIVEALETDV

[3] = target: Serine/threonine-protein kinase pim-3 (Homo sapiens) (UniProt Q86V86); experiment: Inhibition of human PIM3 (2 to 326 residues) assessed as enzyme activity at 1 uM using 33P ATP by radioactive filter binding assay
[4] = target: T3, Serine/threonine-protein kinase D1 (Homo sapiens) (UniProt Q15139); experiment: Inhibition of human PKD1 (2 to 912 residues) assessed as enzyme activity at 1 uM using 33P ATP by radioactive filter binding assay
T3 sequence (whole entry): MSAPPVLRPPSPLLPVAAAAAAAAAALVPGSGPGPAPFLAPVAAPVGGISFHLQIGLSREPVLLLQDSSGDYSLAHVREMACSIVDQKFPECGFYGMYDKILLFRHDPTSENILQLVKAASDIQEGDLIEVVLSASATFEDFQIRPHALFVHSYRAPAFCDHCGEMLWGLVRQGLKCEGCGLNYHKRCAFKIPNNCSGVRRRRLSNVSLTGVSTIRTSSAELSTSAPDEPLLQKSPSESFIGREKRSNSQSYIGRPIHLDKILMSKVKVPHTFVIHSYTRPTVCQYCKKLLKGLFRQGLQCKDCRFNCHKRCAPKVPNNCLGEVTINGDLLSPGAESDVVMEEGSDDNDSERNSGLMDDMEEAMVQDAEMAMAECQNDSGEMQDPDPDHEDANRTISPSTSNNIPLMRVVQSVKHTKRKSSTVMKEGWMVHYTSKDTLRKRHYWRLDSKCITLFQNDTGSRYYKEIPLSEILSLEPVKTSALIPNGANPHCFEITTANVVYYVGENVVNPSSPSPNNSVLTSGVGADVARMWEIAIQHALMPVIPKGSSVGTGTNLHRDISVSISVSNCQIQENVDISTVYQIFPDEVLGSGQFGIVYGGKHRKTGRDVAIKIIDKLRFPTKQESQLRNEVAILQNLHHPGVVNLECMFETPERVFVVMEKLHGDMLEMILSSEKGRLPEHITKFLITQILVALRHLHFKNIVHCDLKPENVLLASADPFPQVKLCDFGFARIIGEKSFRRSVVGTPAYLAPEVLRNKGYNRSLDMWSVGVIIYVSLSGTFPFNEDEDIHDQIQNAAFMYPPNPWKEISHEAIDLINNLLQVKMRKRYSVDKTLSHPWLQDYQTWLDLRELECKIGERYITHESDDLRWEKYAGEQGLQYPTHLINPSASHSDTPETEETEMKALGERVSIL

[5] = target: Rho-associated protein kinase 2 (Rattus norvegicus) (UniProt Q62868); experiment: Inhibition of rat ROCK2 (2 to 543 residues) assessed as enzyme activity at 1 uM using 33P ATP by radioactive filter binding assay
[6] = target: Mitogen-activated protein kinase 14 (Homo sapiens) (UniProt Q16539); experiment: Inhibition of SAPK2a (unknown origin) assessed as enzyme activity at 1 uM using 33P ATP by radioactive filter binding assay
[7] = target: T4, Serine/threonine-protein kinase Chk1 (Homo sapiens) (UniProt O14757); experiment: Inhibition of human CHK1 (1 to 476 residues) assessed as enzyme activity at 1 uM using 33P ATP by radioactive filter binding assay
T4 sequence (whole entry): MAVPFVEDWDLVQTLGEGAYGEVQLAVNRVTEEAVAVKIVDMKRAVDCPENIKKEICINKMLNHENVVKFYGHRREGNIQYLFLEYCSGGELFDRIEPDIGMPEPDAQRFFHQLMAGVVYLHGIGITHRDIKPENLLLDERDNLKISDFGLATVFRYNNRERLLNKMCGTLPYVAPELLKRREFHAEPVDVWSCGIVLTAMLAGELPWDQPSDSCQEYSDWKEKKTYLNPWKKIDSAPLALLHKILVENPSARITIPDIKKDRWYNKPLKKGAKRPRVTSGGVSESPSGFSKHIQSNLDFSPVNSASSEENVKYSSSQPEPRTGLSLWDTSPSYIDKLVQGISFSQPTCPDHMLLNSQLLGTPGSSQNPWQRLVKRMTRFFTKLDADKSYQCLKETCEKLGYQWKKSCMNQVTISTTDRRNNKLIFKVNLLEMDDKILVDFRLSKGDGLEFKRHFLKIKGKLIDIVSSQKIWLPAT

[8] = target: Casein kinase II (Homo sapiens) (UniProt P67870+P68400+P19784); experiment: Inhibition of human CK2 assessed as enzyme activity at 1 uM using 33P ATP by radioactive filter binding assay; format: protein-complex assay

Sequence of Mitogen-activated protein kinase 14 (Homo sapiens) (Q16539 whole entry, the tested form may be a part): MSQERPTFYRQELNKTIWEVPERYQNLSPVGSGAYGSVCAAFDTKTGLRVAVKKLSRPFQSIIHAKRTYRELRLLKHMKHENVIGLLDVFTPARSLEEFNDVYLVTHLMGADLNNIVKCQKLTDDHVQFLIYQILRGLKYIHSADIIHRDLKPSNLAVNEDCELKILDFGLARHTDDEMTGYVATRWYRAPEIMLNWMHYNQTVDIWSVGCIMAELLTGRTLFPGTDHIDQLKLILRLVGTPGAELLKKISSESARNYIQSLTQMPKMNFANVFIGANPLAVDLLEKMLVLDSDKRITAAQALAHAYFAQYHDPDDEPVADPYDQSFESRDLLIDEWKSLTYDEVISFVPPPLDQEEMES
Sequence of Rho-associated protein kinase 2 (Rattus norvegicus) (Q62868 whole entry, looked up, the tested form may be a part): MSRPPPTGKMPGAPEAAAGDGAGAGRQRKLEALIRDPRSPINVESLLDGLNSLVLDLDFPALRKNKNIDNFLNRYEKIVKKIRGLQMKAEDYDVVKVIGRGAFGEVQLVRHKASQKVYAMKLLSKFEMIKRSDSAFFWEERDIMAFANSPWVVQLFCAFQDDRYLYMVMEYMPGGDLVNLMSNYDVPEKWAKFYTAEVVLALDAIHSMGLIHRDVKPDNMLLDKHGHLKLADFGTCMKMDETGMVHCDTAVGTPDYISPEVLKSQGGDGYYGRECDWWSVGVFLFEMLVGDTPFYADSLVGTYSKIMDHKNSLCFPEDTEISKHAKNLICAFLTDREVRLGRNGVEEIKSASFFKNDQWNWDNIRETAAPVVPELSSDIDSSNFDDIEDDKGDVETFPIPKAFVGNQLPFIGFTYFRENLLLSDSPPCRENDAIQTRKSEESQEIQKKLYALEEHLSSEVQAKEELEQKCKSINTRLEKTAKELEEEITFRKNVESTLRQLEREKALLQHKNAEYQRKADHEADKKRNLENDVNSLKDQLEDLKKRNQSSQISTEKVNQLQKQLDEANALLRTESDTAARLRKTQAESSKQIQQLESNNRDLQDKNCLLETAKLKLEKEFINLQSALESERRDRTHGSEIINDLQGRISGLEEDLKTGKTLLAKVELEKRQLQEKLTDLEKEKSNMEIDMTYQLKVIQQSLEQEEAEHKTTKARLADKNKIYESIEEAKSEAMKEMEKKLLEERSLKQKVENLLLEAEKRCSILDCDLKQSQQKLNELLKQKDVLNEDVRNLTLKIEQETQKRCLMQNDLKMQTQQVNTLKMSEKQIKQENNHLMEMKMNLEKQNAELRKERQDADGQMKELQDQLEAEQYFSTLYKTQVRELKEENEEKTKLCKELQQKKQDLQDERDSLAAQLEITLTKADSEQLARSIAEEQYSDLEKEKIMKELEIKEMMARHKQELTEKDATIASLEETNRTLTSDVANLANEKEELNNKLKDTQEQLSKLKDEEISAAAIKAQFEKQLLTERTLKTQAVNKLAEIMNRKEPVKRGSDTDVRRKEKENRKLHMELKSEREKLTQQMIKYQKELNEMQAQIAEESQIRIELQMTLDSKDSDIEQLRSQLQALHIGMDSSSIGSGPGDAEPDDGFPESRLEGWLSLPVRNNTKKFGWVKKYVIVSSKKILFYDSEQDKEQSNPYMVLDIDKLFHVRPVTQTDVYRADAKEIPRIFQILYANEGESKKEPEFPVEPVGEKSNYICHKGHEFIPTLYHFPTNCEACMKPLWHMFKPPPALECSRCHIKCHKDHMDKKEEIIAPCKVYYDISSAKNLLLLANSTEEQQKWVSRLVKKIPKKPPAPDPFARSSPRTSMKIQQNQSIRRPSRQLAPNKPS

Compound | Activity [1] [%] | Activity [2] [%] | Activity [3] [%] | Activity [4] [%] | Activity [5] [%] | Activity [6] [%] | Activity [7] [%] | Activity [8] [%]
CCc1cc(-c2c[nH]c3ncc(-c4cnn(C5CCNCC5)c4)cc23)nc(N)n1 | -78 | -95 | -91 | -96 | -65 | -16 | -89 | -10
CCCCc1cc(-c2c[nH]c3ncccc23)nc(N)n1 | -48 | -21 | -70 | -53 | -93 | -10 | -2 | 14
CCCCc1cc(-c2c[nH]c3ncc(-c4cnn(C5CCNCC5)c4)cc23)nc(N)n1 | -91 | -96 | -98 | -98 | -80 | -22 | -79 | 0
Nc1nccc(-c2c[nH]c3ncccc23)n1 [MERIOLIN 1] | -22 | -40 | -61 | -41 | -97 | -5 | -6 | -22
